Experimental data taken from patent US8933129B2, “Compounds and methods for modulating activity of calcium release channels” (State of Oregon by and through the State Board of Higher …, priority 2009, dated 2015).
Where two headings read alike, the source gives them in different places.

Key:
[1] = electron donor activity (XTT reduction); type: physicochemical; conditions: Michaelis-Menten fit, read-out: Kd (concentration at which half maximal electron donor activity is observed)
Description: (§1) A sample buffer containing a compound to be tested and a photo-reactive dye (i.e., 10 μM methylene blue, eosin B or erythrosin B) can be continuously illuminated with white light (e.g., about 10 cm away from a halogen 20 W light source) and its spectral characteristics monitored as a function of time (e.g., using a HP8452A diode array spectrophotometer). This can be performed in the presence of oxygen. In general, oxygen dissolved in the solution may decrease the photochemical activity of the dye. To compensate and to increase the sensitivity of the method, a comparatively high light intensity can be used (e.g., in the range of about 1-3 mW/cm^2).
(§2) To determine if a compound is an electron acceptor, an electron donor (e.g., NADH or EDTA) can be added to the sample buffer to supply electrons to the photo-excited dye. The electron donor reduces the concentration of the dye cation radical and maintains an increased concentration of the dye anion radical. To test whether a compound is an electron donor, no separate electron donor is necessary. In both cases, a probe can be added (e.g., NBD-Cl or XTT) to react with superoxide and produce a detectable product. The product can be measured, for example, as an increase in absorbance at 470 nm. The difference between the probe absorbance at 470 nm in the presence of the compound to be tested and a control without the compound can be taken as a measure of redox activity of the compound.
When oxygen is unable to intercept all electrons from the dye anion radical, the dye anion radical may disproportionate and form a colorless compound. This process also may serve as a detectable variable corresponding to the redox activity of the tested compound. A compound with electron-acceptor properties intercepts electrons from dye anion radical and thus slows down the rate of dye photo-bleaching. A compound with electron-donor properties donates electrons to the dye cation radical, thus stabilizing the dye anion radical and increasing the rate of dye photo-bleaching. See also International Publication No. WO 2006/086670. […]

[2] = test system: ventricular myocytes; conditions: independent of the presence of FKBP12.6; Hunt et al. 2007; cited from earlier work
[3] = biological target: T1, RyR1 (skeletal muscle CRC) (Oryctolagus cuniculus, UniProt P11716); test: Single Ca2+ channel analysis: open probability of skeletal muscle CRC reconstituted in planar bilayer; type: biochemical, rabbit
T1 construct: from tissue; host or cells: fast twitch skeletal muscle of New Zealand White rabbit, heavy sarcoplasmic reticulum fraction
Description: Fast twitch skeletal muscle sarcoplasmic reticulum was isolated from New Zealand White rabbit, a rich source of skeletal receptors. Following isolation of a crude fraction, the SR was placed on a discontinuous sucrose gradient and a heavy fraction (HSR) was used for all single channel experiments. Ca^2+ release channel reconstitution into a bilayer membrane was carried out by the addition of SR vesicles to the cis side of a planar bilayer lipid membrane. Bilayers, made with a 5:3:2 mixture of phosphatidylethanolamine:phosphatidylserine:phosphatidylcholine (Avanti Polar Lipids) at 50 mg/ml in decane, were formed across a 150 μm hole drilled in a polystyrene cup separating two chambers of 0.7 ml each. […] SR vesicles, suspended in 0.4-0.6 M sucrose, 400 mM CsMS were added to the cis chamber at a final concentration of 5-20 μg/ml.

[4] = test system: TNF-α female perfused mouse hearts; test: Ca2+ transients in Langendorff perfused mouse heart (Rhod-2 fluorescence); type: in vivo; conditions: for effect on Ca2+ transients, in words: nanomolar concentrations
Text: Ca^2+i transients were monitored in a Langendorff perfused mouse heart using Rhod-2 fluorescence.
It is believed that the faster and larger Ca^2+ transient is due to an increase in Ca^2+ load in the lumen of the SR caused by a reduced Ca^2+ “leak” from the SR.

[5] = Electron donor activity: initial rate of XTT reduction; type: physicochemical; conditions: initial rate of XTT reduction fit to Michaelis-Menton equation; read-out: Kd, concentration at which half maximal electron donor activity is observed
Description: as §1
as §2, with “In both cases, a probe can be added (e.g., NBD-Cl or XTT) to react with superoxide and produce a detectable product.” left out, “compound. […]” for “compound.”

[6] = biological target: reactive thiols on the RyR/CRC (Oryctolagus cuniculus, UniProt P11716); test: Redox potential of reactive thiols on RyR from rate of ryanodine binding vs solution redox potential; type: biochemical; conditions: tetracaine 25 μM; control (20 μM Ca2+) −160.3±3.2 mV
[7] = biological target: RyR1 (Oryctolagus cuniculus, UniProt P11716); test: Thiol content of isolated RyR1 by CPM fluorescence; type: biochemical; conditions: 10 mM tetracaine; control ~47 thiols per monomeric receptor
[8] = test system: Langendorff perfused rabbit hearts; test: Dofetilide-induced arrhythmia (LQT2, EADs/TdP) in Langendorff perfused rabbit hearts; type: in vivo
Description: (§3) FIG. 12A plots the transmembrane potential (Vm) and intracellular calcium level (Cai) over a 3-second period five minutes after administration of dofetilide (0.5 μM). FIG. 12B plots the transmembrane potential (Vm) and intracellular calcium level (Cai) over a 3-second period ten minutes after administration of dofetilide (0.5 μM).
(§4) EADs are triggered by spontaneous SR Ca^2+ release and increase in severity or frequency leading to TdP after a few minutes.

[9] = biological target: T2, skeletal muscle CRC (skeletal muscle ryanodine receptor RyR1) (Oryctolagus cuniculus, UniProt P11716); test: single channel activity (open probability) of skeletal muscle Ca2+ release channel reconstituted in planar lipid bilayer; type: biochemical, rabbit (New Zealand White); conditions: sub-micromolar 4-MmC; FIG. 5
T2 construct: heavy sarcoplasmic reticulum vesicles from fast twitch skeletal muscle fused to planar lipid bilayer; single channel recording
Description: Fast twitch skeletal muscle sarcoplasmic reticulum was isolated from New Zealand White rabbit, a rich source of skeletal receptors. Following isolation of a crude fraction, the SR was placed on a discontinuous sucrose gradient and a heavy fraction (HSR) was used for all single channel experiments. Ca^2+ release channel reconstitution into a bilayer membrane was carried out by the addition of SR vesicles to the cis side of a planar bilayer lipid membrane. Bilayers, made with a 5:3:2 mixture of phosphatidylethanolamine:phosphatidylserine:phosphatidylcholine (Avanti Polar Lipids) at 50 mg/ml in decane, were formed across a 150 μm hole drilled in a polystyrene cup separating two chambers of 0.7 ml each. The cis chamber contained 400 mM cesium methane sulfonate (CsMS), 50 μM CaCl2, 25 mM HEPES, pH 7.4, while the trans side contained 40 mM CsMS, 25 mM HEPES pH 7.4. SR vesicles, suspended in 0.4-0.6 M sucrose, 400 mM CsMS were added to the cis chamber at a final concentration of 5-20 μg/ml. […] Channel activity was then measured at a holding potential of +25 mV with respect to the trans (ground) side. […] The data were interfaced through a Digidata 1322A 16 bit data Acquisition System (Axon Instruments), stored filtered at 1 kHz and analyzed for single channel activity using pCLAMP software package (version 9.0, Axon Instruments, Burlingame, Calif.).

[10] = test system: Langendorff perfused rabbit hearts; test: arrhythmia induced by dofetilide in Langendorff perfused rabbit hearts; type: in vivo; conditions: with dofetilide 0.5 μM
Description: as §3, §4

[11] = skeletal muscle CRC, four parameter logistic curve fit, FIG. 2, read-out: IC50, concentration required to half maximally inhibit single channel activity

T1 sequence (P11716 whole entry): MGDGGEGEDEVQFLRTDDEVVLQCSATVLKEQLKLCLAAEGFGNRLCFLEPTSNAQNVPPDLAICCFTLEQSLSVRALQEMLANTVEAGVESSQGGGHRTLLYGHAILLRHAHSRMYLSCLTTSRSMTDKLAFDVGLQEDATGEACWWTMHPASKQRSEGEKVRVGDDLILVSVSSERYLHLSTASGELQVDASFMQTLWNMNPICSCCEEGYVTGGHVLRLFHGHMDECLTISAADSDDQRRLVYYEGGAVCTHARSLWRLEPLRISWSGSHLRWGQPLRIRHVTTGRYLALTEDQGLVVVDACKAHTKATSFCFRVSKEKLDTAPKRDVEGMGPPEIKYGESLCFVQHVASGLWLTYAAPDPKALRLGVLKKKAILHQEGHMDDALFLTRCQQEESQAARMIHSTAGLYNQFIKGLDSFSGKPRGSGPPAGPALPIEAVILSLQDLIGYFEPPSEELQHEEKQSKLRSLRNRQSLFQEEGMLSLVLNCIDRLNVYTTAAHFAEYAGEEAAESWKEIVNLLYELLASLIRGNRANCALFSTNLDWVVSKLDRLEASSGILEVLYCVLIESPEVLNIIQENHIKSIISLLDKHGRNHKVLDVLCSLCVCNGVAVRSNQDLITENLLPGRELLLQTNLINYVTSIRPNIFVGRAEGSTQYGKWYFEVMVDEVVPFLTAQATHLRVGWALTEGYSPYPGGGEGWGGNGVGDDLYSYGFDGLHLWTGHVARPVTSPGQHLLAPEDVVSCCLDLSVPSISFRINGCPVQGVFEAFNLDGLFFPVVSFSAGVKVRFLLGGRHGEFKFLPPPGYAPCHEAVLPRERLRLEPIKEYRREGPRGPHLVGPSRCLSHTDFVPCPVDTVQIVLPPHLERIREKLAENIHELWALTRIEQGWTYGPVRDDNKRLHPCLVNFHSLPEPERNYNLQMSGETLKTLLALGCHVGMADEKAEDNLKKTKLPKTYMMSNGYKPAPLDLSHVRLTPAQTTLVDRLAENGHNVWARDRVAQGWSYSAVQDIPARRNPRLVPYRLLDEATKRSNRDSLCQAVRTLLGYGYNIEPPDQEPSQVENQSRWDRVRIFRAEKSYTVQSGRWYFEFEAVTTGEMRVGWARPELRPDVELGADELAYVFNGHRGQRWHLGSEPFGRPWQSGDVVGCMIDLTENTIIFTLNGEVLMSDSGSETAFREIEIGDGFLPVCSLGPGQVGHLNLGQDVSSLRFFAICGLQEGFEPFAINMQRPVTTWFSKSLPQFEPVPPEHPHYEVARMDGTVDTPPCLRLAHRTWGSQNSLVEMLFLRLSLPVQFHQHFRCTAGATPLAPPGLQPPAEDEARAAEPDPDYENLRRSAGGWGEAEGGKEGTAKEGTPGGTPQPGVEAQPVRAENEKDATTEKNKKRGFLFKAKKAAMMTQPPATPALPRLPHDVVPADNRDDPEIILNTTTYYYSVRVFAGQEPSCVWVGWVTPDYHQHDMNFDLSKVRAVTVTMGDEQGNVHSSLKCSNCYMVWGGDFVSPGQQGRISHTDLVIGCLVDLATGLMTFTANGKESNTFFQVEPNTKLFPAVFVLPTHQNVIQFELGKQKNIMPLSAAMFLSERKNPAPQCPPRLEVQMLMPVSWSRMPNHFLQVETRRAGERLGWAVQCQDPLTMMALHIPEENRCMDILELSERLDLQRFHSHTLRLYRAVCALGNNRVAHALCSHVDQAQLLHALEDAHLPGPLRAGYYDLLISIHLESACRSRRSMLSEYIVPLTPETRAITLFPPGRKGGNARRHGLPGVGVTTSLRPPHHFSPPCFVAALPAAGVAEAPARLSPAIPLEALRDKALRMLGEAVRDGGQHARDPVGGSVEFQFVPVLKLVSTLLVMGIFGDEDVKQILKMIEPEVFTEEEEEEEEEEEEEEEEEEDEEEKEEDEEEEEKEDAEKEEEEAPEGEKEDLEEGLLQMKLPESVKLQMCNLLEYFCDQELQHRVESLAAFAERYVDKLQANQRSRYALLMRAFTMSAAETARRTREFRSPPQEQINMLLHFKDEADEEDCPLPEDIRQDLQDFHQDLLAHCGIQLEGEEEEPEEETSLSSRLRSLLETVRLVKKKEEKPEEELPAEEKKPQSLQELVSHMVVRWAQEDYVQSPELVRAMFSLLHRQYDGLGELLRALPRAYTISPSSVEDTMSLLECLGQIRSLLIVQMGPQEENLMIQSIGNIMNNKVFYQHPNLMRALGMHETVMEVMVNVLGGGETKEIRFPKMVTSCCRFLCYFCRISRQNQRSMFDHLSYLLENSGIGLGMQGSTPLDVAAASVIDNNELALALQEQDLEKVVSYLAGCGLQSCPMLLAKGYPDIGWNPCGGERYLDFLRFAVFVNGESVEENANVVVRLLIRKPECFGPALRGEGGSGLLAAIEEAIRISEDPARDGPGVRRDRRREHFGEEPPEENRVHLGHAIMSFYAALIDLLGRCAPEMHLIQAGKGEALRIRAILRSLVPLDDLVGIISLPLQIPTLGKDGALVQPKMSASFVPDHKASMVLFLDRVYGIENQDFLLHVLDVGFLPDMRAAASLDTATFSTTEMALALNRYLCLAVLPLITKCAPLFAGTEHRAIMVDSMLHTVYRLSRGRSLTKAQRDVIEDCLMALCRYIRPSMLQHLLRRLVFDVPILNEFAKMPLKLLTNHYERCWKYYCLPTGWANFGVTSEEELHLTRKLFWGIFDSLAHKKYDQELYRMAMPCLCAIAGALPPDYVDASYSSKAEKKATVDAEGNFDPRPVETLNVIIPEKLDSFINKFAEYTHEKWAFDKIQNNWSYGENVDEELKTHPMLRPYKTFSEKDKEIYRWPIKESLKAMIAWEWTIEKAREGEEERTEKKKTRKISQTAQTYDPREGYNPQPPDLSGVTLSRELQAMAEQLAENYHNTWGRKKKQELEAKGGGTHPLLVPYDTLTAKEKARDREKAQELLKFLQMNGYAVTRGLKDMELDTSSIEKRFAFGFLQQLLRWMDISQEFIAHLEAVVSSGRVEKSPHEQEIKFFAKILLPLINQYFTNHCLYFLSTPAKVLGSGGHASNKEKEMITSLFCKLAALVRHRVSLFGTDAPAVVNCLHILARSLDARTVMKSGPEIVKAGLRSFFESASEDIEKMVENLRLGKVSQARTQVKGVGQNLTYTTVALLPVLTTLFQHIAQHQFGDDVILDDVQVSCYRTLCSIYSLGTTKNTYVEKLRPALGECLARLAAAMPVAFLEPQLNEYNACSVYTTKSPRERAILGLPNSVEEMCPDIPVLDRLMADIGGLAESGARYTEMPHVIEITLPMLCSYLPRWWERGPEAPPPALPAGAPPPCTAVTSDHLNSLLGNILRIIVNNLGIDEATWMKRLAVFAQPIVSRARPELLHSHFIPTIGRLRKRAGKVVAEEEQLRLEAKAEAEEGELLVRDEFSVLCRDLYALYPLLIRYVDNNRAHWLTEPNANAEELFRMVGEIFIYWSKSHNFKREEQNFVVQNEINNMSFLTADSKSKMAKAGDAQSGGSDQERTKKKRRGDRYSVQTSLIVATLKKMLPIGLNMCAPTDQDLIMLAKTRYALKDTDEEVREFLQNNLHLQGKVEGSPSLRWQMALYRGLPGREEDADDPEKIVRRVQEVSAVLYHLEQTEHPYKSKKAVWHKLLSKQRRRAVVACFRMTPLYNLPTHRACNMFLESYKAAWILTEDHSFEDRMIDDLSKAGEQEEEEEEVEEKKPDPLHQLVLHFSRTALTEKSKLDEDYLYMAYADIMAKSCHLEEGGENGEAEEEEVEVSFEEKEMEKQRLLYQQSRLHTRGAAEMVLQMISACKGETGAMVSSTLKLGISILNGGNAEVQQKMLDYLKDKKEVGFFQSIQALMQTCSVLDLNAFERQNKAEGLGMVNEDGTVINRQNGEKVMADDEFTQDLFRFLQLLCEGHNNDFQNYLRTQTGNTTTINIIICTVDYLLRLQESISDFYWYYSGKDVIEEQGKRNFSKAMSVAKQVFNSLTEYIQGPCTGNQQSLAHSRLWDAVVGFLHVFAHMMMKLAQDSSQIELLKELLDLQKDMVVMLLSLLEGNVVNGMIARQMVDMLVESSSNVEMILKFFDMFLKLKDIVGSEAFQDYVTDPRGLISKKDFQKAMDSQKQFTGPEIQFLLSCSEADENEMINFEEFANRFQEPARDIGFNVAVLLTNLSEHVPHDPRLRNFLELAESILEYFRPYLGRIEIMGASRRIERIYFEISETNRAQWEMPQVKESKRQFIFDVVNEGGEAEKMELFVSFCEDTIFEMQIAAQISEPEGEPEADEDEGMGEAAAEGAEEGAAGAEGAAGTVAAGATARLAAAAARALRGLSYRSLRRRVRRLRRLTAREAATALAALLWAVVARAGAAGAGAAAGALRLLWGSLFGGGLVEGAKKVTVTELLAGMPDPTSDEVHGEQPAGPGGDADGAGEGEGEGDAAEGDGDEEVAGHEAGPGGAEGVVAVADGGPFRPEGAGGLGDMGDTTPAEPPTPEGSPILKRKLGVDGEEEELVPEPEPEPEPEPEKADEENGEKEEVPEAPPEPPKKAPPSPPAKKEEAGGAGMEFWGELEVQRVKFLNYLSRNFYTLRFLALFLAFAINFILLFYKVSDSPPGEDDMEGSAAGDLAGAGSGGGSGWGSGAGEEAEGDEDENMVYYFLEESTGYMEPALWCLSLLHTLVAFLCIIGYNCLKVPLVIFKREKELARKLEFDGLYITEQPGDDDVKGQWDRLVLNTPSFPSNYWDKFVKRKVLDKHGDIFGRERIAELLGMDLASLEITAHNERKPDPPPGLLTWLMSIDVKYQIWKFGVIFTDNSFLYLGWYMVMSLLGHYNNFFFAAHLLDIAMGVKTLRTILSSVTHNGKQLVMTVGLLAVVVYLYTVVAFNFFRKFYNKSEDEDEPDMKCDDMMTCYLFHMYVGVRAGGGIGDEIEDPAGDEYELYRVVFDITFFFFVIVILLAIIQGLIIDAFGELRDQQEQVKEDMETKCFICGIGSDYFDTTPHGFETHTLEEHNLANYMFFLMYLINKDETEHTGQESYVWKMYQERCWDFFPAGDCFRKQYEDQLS
T1 sequence (P62943 2-108 partner limits assumed): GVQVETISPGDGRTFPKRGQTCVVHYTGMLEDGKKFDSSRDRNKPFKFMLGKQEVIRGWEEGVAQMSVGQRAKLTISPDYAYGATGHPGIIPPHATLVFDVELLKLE
Chain of RyR1 (P11716 whole entry, the tested form may be a part): as the sequence (P11716 whole entry) above

COc1ccc2c(c1)CN(C(=O)CCN1CCC(Cc3ccccc3)CC1)CCS2 [K201, reference compound]
Kd [1]: 28 µM
spontaneous Ca2+ release [2]: suppresses spontaneous Ca^2+ release in ventricular myocytes

COc1ccc2c(c1)CN(C(=O)CCN1CCC(Cc3ccccc3)CC1)CCS2 [K201]
effect on channel activity in the absence of FKBP12, in words ([3]; 10 μM K201 after 20 μM FK506): still inhibited channel activity
open probability Po ([3]; +5 μM K201, 20 μM Ca2+, control Po=0.107, FIG. 8B): 0.060
open probability Po ([3]; +10 μM K201, 20 μM Ca2+, control Po=0.107, FIG. 8C): 0.047
open probability Po ([3]; +10 μM K201 on FK506-treated (20 μM) channel, Po=0.106 before, FIG. 9C): 0.009
IC50 ([3]; IC50 for K201 inhibition of RyR1, FIG. 2, as restated in Example 4, unit inferred): ~4 µM
IC50 [3, 11]: 3.98 ± 0.79 µM
concentration at which amplitude of Ca2+ transients was adversely affected ([4]; mouse, in vivo): 10 to 25 µM
effect on Ca2+ transients, in words [4]: enhance Ca^2+ transients

FKBP12: FK506 binding protein (calstabin1) that binds RyR1; endogenous electron donor
Kd [5]: ~12.4 µM

CCCCNc1ccc(C(=O)OCCN(C)C)cc1 [tetracaine]
redox potential of the reactive thiols [6]: −147.7±2.8 mV
number of thiols reacting with CPM [7]: ~70 per monomer

CN(CCOc1ccc(NS(C)(=O)=O)cc1)CCc1ccc(NS(C)(=O)=O)cc1 [Dofetilide, dofetilide, reference compound]
time to elicit EADs ([8]; dofetilide 0.5 μM): 5 min
pro-arrhythmic effect, in words ([8]; dofetilide 0.5 μM, panel B, ten minutes): promotes TdP

COc1ccc(O)cc1C [4-MmC, 4-methoxy-3-methylphenol]
open probability Po ([3]; +10 μM 4-MmC after 6 mM caffeine (Po=0.071), 50 μM Ca2+, FIG. 3C): 0.015
Ki ([3]; skeletal muscle CRC, FIG. 5, unit inferred, read-out: Ki for inhibition of single channel activity): ~0.5 µM
effect on open probability (Po), in words ([3]; sub-micromolar concentrations, FIG. 5): significantly decreased
decrease of open probability (Po) at sub-micromolar concentrations [9]: significantly decreased the open probability (Po)
Kd ([1]; listed as 4-methoxy-3-methyl phenol): 13 µM
Kd [1]: ~13 µM

COc1ccc2c(c1)CN(C(=O)CCN1CCC(Cc3ccc4c(c3)OCO4)CC1)CCS2 [[1,3]dioxole derivative of K201, 3-(4-(benzo[d][1,3]dioxol-5-ylmethyl)piperidin-1-yl)-1-(7-methoxy-2,3-dihydrobenzo[f][1,4]thiazepin-4(5H)-yl)propan-1-one]
effect on arrhythmias induced by dofetilide, in words ([8]; 1 μM test compound, dofetilide 0.5 μM): reverse arrhythmias
effect on EADs and AP shape, in words ([8]; 1.0 μM, dofetilide 0.5 μM, adult female rabbit hearts paced at 1.2 second intervals): all EADs were suppressed
duration of protective effects ([8]; continuous perfusion with dofetilide and test compound): 20 min
IC50 [3, 11]: 0.24 ± 0.05 µM
potency of inhibition of single channel activity relative to K201 ([3]; skeletal muscle CRC, ratio of IC50 values): about 16 times
effect on amount of SR Ca2+ release compared to controls, in words ([4]; high concentrations): did not reduce the amount of SR Ca^2+ release
concentration causing enhancement of fractional change in Rhod-2 fluorescence (Ca2+ transient) ([4]; lowest concentration stated (as low as)): 10 nM
effect on Ca2+ transients, in words [4]: enhance Ca^2+ transients

COc1ccc2c(c1)CN(C(=O)CCN1CCC(Cc3ccc4c(c3)OCO4)CC1)CCS2 [[1,3]dioxole derivative, 3-(4-(benzo[d][1,3]dioxol-5-ylmethyl)piperidin-1-yl)-1-(7-methoxy-2,3-dihydrobenzo[f][1,4]thiazepin-4(5H)-yl)propan-1-one]
action potential shape ([10]; 1.0 μM): the normal AP shape was restored
elimination of EADs and delayed afterdepolarizations (DADs) ([10]; 1.0 μM): eliminated both EADs and delayed afterdepolarizations (DADs)
reversal of arrhythmias induced by dofetilide ([10]; 1 μM, FIG. 12): can reverse arrhythmias induced by dofetilide
